The results in this text go back to PubChem BioAssay (NCI).

Some test systems named below: NCI-H522 lung; MALME-3M melanoma; MOLT-4 leukemia; NCI-H23 lung; TK-10 renal; MDA-MB-435; ACHN renal; M14 melanoma; NCI-H226 lung; SK-OV-3 ovarian.
What all share (test): NCI tumour cell line growth inhibition, 48 h

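A five-concentration, 48-hour dose response in 96-well plates underlies each endpoint, interpolated linearly between surrounding concentrations. Abbreviation: GI50, concentration required for 50% inhibition of growth. TGI is the concentration that stops growth completely.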 A value given as a limit tells only on which side of the number the result lay.

Regarding `Nc1ccccc1C#C/C=C\C#Cc1ccccc1N`, the GI50 with NCI-H522 lung was 16.3 µM; in the assay with MALME-3M melanoma, 7.86 µM; in the assay on MOLT-4 leukemia it was 1.04 µM; in the assay on NCI-H23 lung, 18.6 µM; with TK-10 renal it was 8.33 µM; with MDA-MB-435, 1.43 µM. In addition, the GI50 with ACHN renal was 19.9 µM; in the assay with M14 melanoma it was 5.04 µM; in the assay on NCI-H226 lung, 19.6 µM; in the assay with SK-OV-3 ovarian, 23.2 µM. In addition, the TGI in the assay with NCI-H522 lung worked out at 44.5 µM; in the assay with MALME-3M melanoma, 32.9 µM; in the assay on MOLT-4 leukemia, 17.3 µM; in the assay with NCI-H23 lung it was 62.9 µM; with TK-10 renal, 36.1 µM; in the assay with MDA-MB-435 it was 4.58 µM. Also, the TGI was 50.9 µM with ACHN renal, 22.7 µM in the assay with M14 melanoma, 53.8 µM in the assay with NCI-H226 lung and 54.9 µM with SK-OV-3 ovarian.

`CCCC(CCC)NCC(O)c1cc(-c2ccc(C(F)(F)F)cc2)nc(C(F)(F)F)c1` (stereo not drawn): the GI50 was 1.71 µM with NCI-H522 lung; 2.05 µM in the assay on MALME-3M melanoma; 1.89 µM with MOLT-4 leukemia; 1.58 µM in the assay with NCI-H23 lung; 1.98 µM in the assay on TK-10 renal; 1.96 µM with MDA-MB-435. For the same compound, the GI50 in the assay on ACHN renal was 1.63 µM; in the assay on M14 melanoma, 1.75 µM; in the assay on NCI-H226 lung, 1.59 µM; with SK-OV-3 ovarian it was 1.75 µM. Moreover, the TGI in the assay on NCI-H522 lung stood at 3.26 µM; in the assay with MALME-3M melanoma, 4.02 µM; in the assay on MOLT-4 leukemia, 3.84 µM; with NCI-H23 lung, 3.15 µM; in the assay with TK-10 renal it was 3.44 µM; in the assay with MDA-MB-435, 3.74 µM. For the same compound, the TGI in the assay with ACHN renal came out at 3.16 µM; in the assay with M14 melanoma it was 3.32 µM; in the assay on NCI-H226 lung it was 3.08 µM; with SK-OV-3 ovarian, 3.22 µM.

Take `CN1CCc2nc(N)nc(-c3nc(N)nc4c3CN(C)CC4)c2C1`: the TGI in the assay on NCI-H522 lung, with MALME-3M melanoma, in the assay with MOLT-4 leukemia, in the assay with NCI-H23 lung, with TK-10 renal and in the assay on MDA-MB-435 was more than 100 µM throughout. Moreover, the TGI in the assay on ACHN renal, in the assay with M14 melanoma, with NCI-H226 lung and in the assay on SK-OV-3 ovarian was more than 100 µM in each case.

On to `Cc1ccc(NC(=O)c2cccc(C(C)(C)C#N)c2)cc1Nc1ccc2ncn(C)c(=O)c2c1`, for which the GI50 in the assay on NCI-H522 lung was 3.88 µM; with MOLT-4 leukemia, 5.2 µM; in the assay with NCI-H23 lung, 0.304 µM; in the assay with TK-10 renal, 2.9 µM; with MDA-MB-435, 0.0625 µM; with ACHN renal, 1.73 µM. The GI50 was 0.019 µM with M14 melanoma, 5.62 µM with NCI-H226 lung and more than 100 µM in the assay with SK-OV-3 ovarian. The TGI in the assay on NCI-H522 lung is more than 100 µM; in the assay with MALME-3M melanoma it was 0.0434 µM; in the assay with MOLT-4 leukemia it was more than 100 µM; in the assay on NCI-H23 lung it was more than 100 µM; with TK-10 renal, more than 100 µM; in the assay on MDA-MB-435 it was more than 100 µM. The TGI in the assay on ACHN renal, with NCI-H226 lung and in the assay with SK-OV-3 ovarian was more than 100 µM in each case.

Regarding `CC(C)c1c(O)c(O)c2c(c1O)C(=O)C(O)=C1C(C)(C)CCC[C@@]12C`, the TGI came out at 13.4 µM in the assay with NCI-H522 lung; 15.9 µM with MALME-3M melanoma; 5.99 µM in the assay on MOLT-4 leukemia; 13.8 µM in the assay with NCI-H23 lung; 15.1 µM with TK-10 renal; 10.1 µM in the assay on MDA-MB-435. Besides, the TGI turned out to be 11.3 µM in the assay with ACHN renal, 19.3 µM in the assay with M14 melanoma, 7.88 µM with NCI-H226 lung and 15.6 µM with SK-OV-3 ovarian.

As for `O=C(Nc1n[nH]c2cc(-c3ccccc3)ccc12)C1CC1`, the GI50 was 1.29 µM with NCI-H522 lung; more than 17.7 µM in the assay on MALME-3M melanoma; more than 16.6 µM in the assay with MOLT-4 leukemia; 16.8 µM in the assay on NCI-H23 lung; more than 25 µM with TK-10 renal; 0.721 µM in the assay with MDA-MB-435. Besides, the GI50 was more than 25 µM in the assay with ACHN renal, 15.4 µM in the assay with M14 melanoma, more than 25 µM with NCI-H226 lung and 14.2 µM in the assay on SK-OV-3 ovarian. Besides, the TGI in the assay on NCI-H522 lung, in the assay on MALME-3M melanoma, with MOLT-4 leukemia, in the assay with NCI-H23 lung, in the assay with TK-10 renal and with MDA-MB-435 was more than 25 µM throughout. Also, the TGI in the assay on ACHN renal, in the assay with M14 melanoma, in the assay with NCI-H226 lung and in the assay with SK-OV-3 ovarian was more than 25 µM each time.

On to `COc1ccc(C(=O)c2cc(C)c(OC)c(C)c2)cc1OC(=O)CCl`, for which the GI50 with NCI-H522 lung was less than 0.01 µM; with MALME-3M melanoma it was 13.1 µM; with MOLT-4 leukemia, less than 0.0158 µM; in the assay with NCI-H23 lung, less than 0.0293 µM; in the assay with TK-10 renal it was 34.7 µM; with MDA-MB-435, less than 0.01 µM. Also, the GI50 is less than 0.01 µM with ACHN renal, less than 0.01 µM with M14 melanoma, 4.27 µM in the assay on NCI-H226 lung and less than 0.0238 µM in the assay with SK-OV-3 ovarian. The TGI in the assay on NCI-H522 lung is less than 0.01 µM; in the assay with MALME-3M melanoma, 59.6 µM; with MOLT-4 leukemia it was more than 100 µM; in the assay with NCI-H23 lung, more than 100 µM; in the assay with TK-10 renal, more than 100 µM; in the assay with MDA-MB-435, less than 0.01 µM. The TGI with ACHN renal is 77.5 µM; with M14 melanoma, 22.8 µM; with NCI-H226 lung it was more than 100 µM; in the assay with SK-OV-3 ovarian, more than 100 µM.

As for `COc1ccc(-c2[nH]c3ccc(OC)cc3c2/C=C(\C#N)S(=O)(=O)c2ccccc2)cc1`, the GI50 in the assay on NCI-H522 lung was 1.58 µM; in the assay with MALME-3M melanoma it was 3.13 µM; in the assay with MOLT-4 leukemia, 0.745 µM; with NCI-H23 lung, 0.965 µM; in the assay with TK-10 renal it was 4.56 µM; in the assay with MDA-MB-435 it was 0.272 µM. The GI50 with ACHN renal was 1.79 µM; with M14 melanoma, 0.494 µM; in the assay with NCI-H226 lung, 3.51 µM; in the assay with SK-OV-3 ovarian, 0.963 µM. The TGI was more than 20.7 µM with NCI-H522 lung; more than 82.2 µM in the assay with MALME-3M melanoma; more than 20.2 µM with MOLT-4 leukemia; more than 33.3 µM in the assay on NCI-H23 lung; more than 100 µM in the assay with TK-10 renal; more than 100 µM with MDA-MB-435. For the same compound, the TGI in the assay with ACHN renal was more than 100 µM; in the assay with M14 melanoma, 18.2 µM; with NCI-H226 lung it was more than 100 µM; with SK-OV-3 ovarian, more than 65.9 µM.
